Like-named read-outs stand apart in the source and are kept apart here. Blank lines part the entries; values can stand above or below the compound they belong to.
Key:
Format in all cases: cell-based, human
[1] = system: normal cells and different lung cancer cell lines; experiment: Inhibition of cell proliferation, CCK8 method, comparison in words over the whole cell panel; settings: BEAS-2B, HBE, H460, A549, H1975, HCC827; CCK8, 48 h
Method: (§1) Compounds 1-9 of the present invention were respectively weighed and dissolved in 1 ml of dimethyl sulfoxide (DMSO), to prepare a 10 mM drug solution, which was stored in a refrigerator at −20° C. in the dark after packaging. The stock solution was diluted with the corresponding culture medium to the required concentration just before the experiment.
(§2) HBE cells and BEAS-2B cells are normal lung bronchial epithelial cell lines, and both cells were cultured in DMEM high glucose medium (supplemented with 10% fetal bovine serum and 1% double antibody) to the logarithmic growth phase; H460 cells, A549 cells, H1975 cells and HCC827 cells are lung cancer cell lines, and all of them were cultured in RPMI1640 medium (supplemented with 10% fetal bovine serum and 1% double antibody) to the logarithmic growth phase. Among them, H1975 cells and HCC827 cells are EGFR mutant cells.
(§3) When the cells were cultured to 90% of the growth density, the cells were digested with 0.25% trypsin to prepare a single cell suspension. The cells were counted, and then seeded in a 96-well plate at a density of 5000 cells/well, 100 μl for each well. The culture plate was moved into a CO2 incubator and incubated for 24 h at 37° C. and 5% CO2. Compounds at different concentrations were added to each well, 5 replicate wells for each concentration, and the cells were treated with the compounds for 48 hours. CCK8 detection reagent was added to each well according to the operation manual, and then the plate was further incubated for 1 h before terminating the culture. 450 nm wavelength was chosen, and the absorbance value of each well was adjusted on the microplate ELISA analyzer. The result was recorded. […] was taken as the horizontal axis, and absorbance as the vertical axis to plot a curve. The half inhibitory concentration (IC50) was calculated by Bliss method. Each experiment was repeated at least 3 times.
(§4) Normal lung cell lines and different lung cancer cell lines were selected for experiments. Amongst, the compound with high anti-cancer activity was screened, whose anti-tumor activity was further studied.

H460 cells = experiment: Inhibition of cell proliferation, CCK8 method; settings: 48 h, read-out: Inhibitory activity (IC50) against H460
Method: as §1, §2, §3, §4

Akt = experiment: Western blot, inhibition of Akt phosphorylation
Method: (§5) (1) Various cell lines in the logarithmic growth phase were evenly inoculated in a 6-well plate at a concentration of 3×10^6 cells/well, respectively, and cultured for 24 h;
(§6) (2) The culture supernatant was removed, and then the cells were washed twice with PBS, and treated with serum-free medium for 1 hour;
(§7) (3) The culture supernatant was removed, and each compound at different concentrations was added, then the cells were treated for 2 h;
(§8) (4) The supernatant was removed, and the cells were washed twice with pre-cooled PBS, then the supernatant was discarded;
(§9) (5) 100 μl of cell lysate was added to each well, and cells were lysed on ice for 10 min. The cells were scraped with a cell scraper. The cell lysate was transferred to a pre-cooled 1.5 ml EP tube, sonicated, and centrifuged under 12000 rpm at 4° C. for 10 min. The supernatant was carefully aspirated and stored at −20° C.
(§10) (6) To the aliquoted total cell protein, was added 5 μl of 5× loading buffer, and the protein was denatured in a water bath at 100° C. for 10 min, then the sample was centrifugated and loaded;
(§11) (1) The successfully transferred membrane was placed in the 1× blocking solution prepared, and kept in the blocking solution at room temperature for about 1 h;
(§12) (2) EGFR protein and its downstream proteins were diluted with 1× primary antibody diluent, and incubated overnight at 4° C., using […] antibody as an internal reference;
(§13) (3) The membrane was washed 3 times with 1×TBST, 5 min for each time, and then washed with 1× secondary antibody dilution, followed by incubation for 1 h at room temperature. Finally, the membrane was washed 3 times with 1×TBST, 15 min for each time.
(§14) (2) The mixed ECL reagent was added to PVDF membrane (1 ml/10 cm^2), and subjected to chemiluminescence to obtain a band;
(§15) Western Blot method was used to analyze the influence of each compound on the expression of pathway proteins.

ERK1/2 = experiment: Western blot, inhibition of ERK1/2 phosphorylation
Method: as §5, §6, §7, §8, §9, §10, §11, §12, §13, §14, §15

EGFR-Tyr992 = experiment: Western blot, inhibition of EGFR phosphorylation; settings: H1975 cells
Method: as §5, §6, §7, §8, §9, §10
(1) The successfully transferred membrane was placed in the 1× blocking solution prepared, and kept in the blocking solution at room temperature for about 1 h; […]

HCC827 cells [2] = experiment: Cell cycle, PI staining, flow cytometry; settings: for G2/M phase (%): 18 h (control 24.99); for S phase (%): 18 h (control 33.66); for G0/G1 phase (%): 18 h (control 41.35)
Method: A variety of different cells in the logarithmic growth phase were inoculated evenly in a 6-well plate at a concentration of 1×10^6 cells/well, 2 ml for each well, and then incubated overnight. Then, different compounds were added, and each compound was set different concentrations. After 18 h, the cells were collected, resuspended in PBS, and centrifuged to remove the supernatant, to which was then added 0.5 ml of pre-cooled 75% absolute ethanol dropwise, followed by vortexing to mix the cells and standing overnight at 4° C. The solution was centrifuged at 1000 rpm/min for 4 min, and the supernatant was discarded. Propidium iodide staining solution was prepared by using 5.6 ml staining buffer, 210 μl propidium iodide staining solution (25×), and 56 μl RNaseA (2.5 mg/ml). 0.4 ml of propidium iodide staining solution was added to each tube to resuspend the cells, and then incubated for 30 min at room temperature in the dark. The cell suspension was gently pipetted to mix, filtered into a flow tube, and stored in the dark at 4° C. The cells were detected on the flow cytometer within 1 h.

H1975 cells = experiment: Apoptosis, Annexin V-FITC/PI double staining, flow cytometry; settings: for Total apoptosis rate (%): 18 h (control 9.2)
Method: (§16) Apoptosis was detected by Annexin V-FITC/PI double staining method. A variety of different cells in the logarithmic growth phase were inoculated evenly in a 6-well plate at a concentration of 1×10^6 cells/well, 2 ml for each well, and then incubated overnight. Then, different compounds were added, and each compound was set different concentrations. After 18 h, the cells were collected with 0.25% trypsin without EDTA and washed twice with PBS solution. Then, the cells were stained by the apoptosis detection kit according to the instructions, and analyzed by flow cytometry.
(§17) In the experiment, human lung cancer cells HCC827 cells and H1975 cells were selected as the detection system. The control group was a blank control (DMSO). The test concentrations of the compounds were 0.5 μM and 5 μM. After treatment with the compounds for 18 h, the flow cytometry was used for detection. In the apoptosis result graph, the cells in quadrant E1 are necrotic cells, the cells in quadrant E2 are late apoptotic cells, the cells in quadrant E3 area represent live cells, and the cells in quadrant E4 are early apoptotic cells.

HCC827 cells [3] = experiment: as above; settings: for Total apoptosis rate (%): 18 h (control 10.8)
Method: as §16, §17

[4] = Homo sapiens, NCI-H460, H460 large cell lung cancer cells

IC50 (H460 cells; H460 large cell lung cancer cells): 4.86 µM
SMILES: C=CC(=O)Nc1cccc(Oc2nc(Nc3ccc(N4CCN(C)CC4)c(Cl)c3)nc3[nH]ccc23)c1 [Compound 2]
inhibitory effect on different cell lines (in words) [1]: basically the same as that of the positive control

IC50 (H460 cells; [4]): 33.6 µM
SMILES: C=CC(=O)Nc1cccc(Oc2nc(Nc3ccc(N4CCN(C)CC4)c(OC)c3)nc3[nH]ccc23)c1 [Compound 4]

IC50 (H460 cells; [4]): 8.02 µM
SMILES: C=CC(=O)Nc1cccc(Oc2nc(Nc3ccc(N4CCN(C)CC4)c([N+](=O)[O-])c3)nc3[nH]ccc23)c1 [Compound 5]
inhibition of phosphorylation of Akt (Akt; H1975 cells): inhibited
inhibition of phosphorylation of Akt (Akt; wild-type EGFR cells): much weaker inhibitory effects
inhibition of phosphorylation of ERK1/2 (ERK1/2; H1975 cells): inhibited
inhibition of phosphorylation of ERK1/2 (ERK1/2; wild-type EGFR cells): much weaker inhibitory effects
inhibition of phosphorylation of EGFR-Tyr992 (EGFR-Tyr992): effectively inhibited
ratio of cells in the G0/G1 phase compared with the control group (in words) (HCC827 cells [2]): significantly higher
G2/M phase (%) (HCC827 cells [2]; 0.5 μM): 9.72%
S phase (%) (HCC827 cells [2]; 0.5 μM): 16.99%
G0/G1 phase (%) (HCC827 cells [2]; 0.5 μM): 73.29%
G2/M phase (%) (HCC827 cells [2]; 5 μM): 14.12%
S phase (%) (HCC827 cells [2]; 5 μM): 4.36%
G0/G1 phase (%) (HCC827 cells [2]; 5 μM): 81.52%
apoptosis-inducing effect (in words) (H1975 cells): certain apoptosis-inducing effects
Total apoptosis rate (%) (H1975 cells; 0.5 μM): 12.7%
Total apoptosis rate (%) (H1975 cells; 5 μM): 13.5%
apoptosis-inducing effect (in words) (HCC827 cells [3]): certain apoptosis-inducing effects
Total apoptosis rate (%) (HCC827 cells [3]; 0.5 μM): 30.3%
Total apoptosis rate (%) (HCC827 cells [3]; 5 μM): 23.8%

IC50 (H460 cells; [4]): 26.7 µM
SMILES: C=CC(=O)Nc1cccc(Oc2nc(Nc3ccc(N4CCN(C)CC4)c(N)c3)nc3[nH]ccc23)c1 [Compound 6]
inhibition of phosphorylation of Akt (Akt; H1975 cells): inhibited
inhibition of phosphorylation of Akt (Akt; wild-type EGFR cells): much weaker inhibitory effects
inhibition of phosphorylation of ERK1/2 (ERK1/2; H1975 cells): inhibited
inhibition of phosphorylation of ERK1/2 (ERK1/2; wild-type EGFR cells): much weaker inhibitory effects
inhibition of phosphorylation of EGFR-Tyr992 (EGFR-Tyr992): effectively inhibited
ratio of cells in the G0/G1 phase compared with the control group (in words) (HCC827 cells [2]): significantly higher
G2/M phase (%) (HCC827 cells [2]; 0.5 μM): 10.27%
S phase (%) (HCC827 cells [2]; 0.5 μM): 11.62%
G0/G1 phase (%) (HCC827 cells [2]; 0.5 μM): 78.11%
G2/M phase (%) (HCC827 cells [2]; 5 μM): 7.95%
S phase (%) (HCC827 cells [2]; 5 μM): 13.93%
G0/G1 phase (%) (HCC827 cells [2]; 5 μM): 78.12%
apoptosis-inducing effect (in words) (H1975 cells): certain apoptosis-inducing effects
Total apoptosis rate (%) (H1975 cells; 0.5 μM): 16.4%
Total apoptosis rate (%) (H1975 cells; 5 μM): 16.1%
apoptosis-inducing effect (in words) (HCC827 cells [3]): certain apoptosis-inducing effects
Total apoptosis rate (%) (HCC827 cells [3]; 0.5 μM): 28.7%
Total apoptosis rate (%) (HCC827 cells [3]; 5 μM): 23.6%

IC50 (H460 cells; [4]): 4.68 µM
SMILES: C=CC(=O)Nc1cccc(Oc2nc(Nc3ccc(N4CCN(C)CC4)c([N+](=O)[O-])c3)nc3c2ccn3COC(=O)C(C)(C)C)c1 [Compound 7]

IC50 (H460 cells; [4]): 7.65 µM
SMILES: C=CC(=O)Nc1cccc(Oc2nc(Nc3ccc(N4CCN(C)CC4)c(N)c3)nc3c2ccn3COC(=O)C(C)(C)C)c1 [Compound 8]
inhibitory effect on different cell lines (in words) [1]: relatively poor inhibitory effects on other cell lines

IC50 (H460 cells; [4]): 25.1 µM
SMILES: C=CC(=O)Nc1cccc(Oc2nc(Nc3ccc(N4CCN(C)CC4)c(I)c3)nc3c2ccn3COC(=O)C(C)(C)C)c1 [Compound 9]
inhibitory effect on different cell lines (in words) [1]: poorer than that of other compounds

From patent publication US20230075765A1, “PYRROLO[2,3-D]PYRIMIDINE DERIVATIVE TARGETING EGFR MUTATION, AS WELL AS THE PREPARATIVE METHOD AND THE USE THEREOF” (WEST CHINA HOSPITAL, SICHUAN UNIVERSITY, priority 2020, published 2023)
